Assay [1] has as its system mononuclear cell adhesion to HUVEC induced by TNFα. As to the kind of experiment: Parallel flow chamber: mononuclear cell adhesion to TNFα-stimulated HUVEC. Type of assay: cell-based, human. Here is the method:
The parallel flow camera technique was used, which allows viewing cell adhesion under dynamic physiological flow conditions.
In the execution of this study, neutrophils and mononuclear cells were perfused through monolayers of HUVEC previously stimulated, or not, with TNFα (20 ng/mL) for 24 h. For this purpose, the neutrophils and human mononuclear cells were obtained in suspension from healthy volunteers by the Ficoll-Hypaque method, centrifuging by density gradient. Freshly isolated cells (1 × 10^6/mL) were perfused through the monolayer of endothelial cells (HUVEC) stimulated, or not, with TNFα for 24 h. In all the experiments the interactions of the leukocytes were determined after being perfused for 5 min at 0.5 dyne/cm^2. The HUVEC plates were placed in the flow chamber (GlycoTech, Gaithersburg, MD) and a camera was coupled to a phase-contrast inverted microscope (Axio Observer A1 Carl Zeiss microscope, Thornwood, NY) to view cell adhesion (20x lens and 10x eyepiece). In addition, the images were recorded on video for subsequent analysis.

Assay [2] relates to ICAM-1. As to the kind of experiment: Flow cytometry of TNFα-induced ICAM-1 expression in HUVEC. As to conditions: TNFα 20 ng/mL 24 h. Type of assay: cell-based, human. Here is the method:
(§1) The cells were collected from the flasks using accutase (StemPro® Accutase® Cell Dissociation Reagent, ThermoFischer Scientific, Waltham, MA).
(§2) Then they were washed and incubated for 1 h with a APC-conjugated mAb antibody against human VCAM-1 (100 µg/mL; clone STA, BioLegend, San Diego, CA), a FITC- conjugated mAb against human ICAM-1 (400 µg/mL; clone HA58, BioLegend, San Diego, CA), a PE-conjugated mAb against human CX3CL1 (1.25 µg/mL; clone 51637, R&D Systems, Minneapolis, MN) or with a APC-conjugated mAb antibody against human CXCL16 (clone 256213, R&D Systems, Abingdon, UK), all at a dilution of 1:25 in 3% BSA/PBS. The samples were analyzed using a BD FACSVerse Flow Cytometer (BD Biosciences, San Jose, CA).

Assay [3] addresses T1, hPPARα (Homo sapiens, UniProt Q07869).
T1 sequence (Q07869 167-468): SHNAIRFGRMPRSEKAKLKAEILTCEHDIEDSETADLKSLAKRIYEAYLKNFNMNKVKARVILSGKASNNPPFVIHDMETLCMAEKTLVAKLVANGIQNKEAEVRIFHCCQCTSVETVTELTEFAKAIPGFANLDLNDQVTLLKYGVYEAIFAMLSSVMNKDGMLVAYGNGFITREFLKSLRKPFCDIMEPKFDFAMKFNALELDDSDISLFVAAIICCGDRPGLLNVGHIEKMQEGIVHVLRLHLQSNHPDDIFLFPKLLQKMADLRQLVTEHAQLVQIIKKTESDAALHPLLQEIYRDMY
As to the kind of experiment: PPAR/Gal4 chimera luciferase reporter transactivation assay in transiently transfected Cos-7 cells (hPPARα). Type of assay: cell-based. As to the method: (§3) The cells were maintained under standard culture conditions (Dulbecco modified minimum essential Eagle medium, DMEM) supplemented with 10% fetal calf serum (FCS) at 37°C in 5% […] CO2 atmosphere. The medium was changed every 2 days. The Cos-7 cells were seeded in 60 mm discs at a density of 5.5 × 10^5 cells/disc in DMEM supplemented with 10% FCS and incubated at 37°C for 16 h before transfection. The cells were transfected in DMEM using jetPEI, with reporter (pG5-TK-pGL3) and expression (pGal4-h, hPPARα or hPPARγ) plasmids. The expression plasmid pCMV-β-galactosidase was cotransfected as a control for transfection efficacy. After 16 h the transfection was stopped adding DMEM supplemented with 10% FCS, and the cells were trypsinised and seeded in 96-well plates and incubated for 6 h in DMEM containing 10% FCS. Subsequently, the cells were incubated for 24 h in DMEM containing 0.2% FCS and increasing concentrations of the compounds or the vehicle (DMSO, maximum concentration 0.1%) were tested. Finally, the cells were washed once with PBS cooled on ice, lysed and the luciferase and β-galactosidase assays were performed.
(§4) To evaluate the compounds for PPAR transcriptional activity, the tests were conducted in a PPAR/Gal4 chimera of a human luciferase reporter gene to determine the maximum transactivation response of each compound.

For assay [4], the target named is T2, hPPARγ (Homo sapiens, UniProt P37231).
T2 sequence (P37231 238-505): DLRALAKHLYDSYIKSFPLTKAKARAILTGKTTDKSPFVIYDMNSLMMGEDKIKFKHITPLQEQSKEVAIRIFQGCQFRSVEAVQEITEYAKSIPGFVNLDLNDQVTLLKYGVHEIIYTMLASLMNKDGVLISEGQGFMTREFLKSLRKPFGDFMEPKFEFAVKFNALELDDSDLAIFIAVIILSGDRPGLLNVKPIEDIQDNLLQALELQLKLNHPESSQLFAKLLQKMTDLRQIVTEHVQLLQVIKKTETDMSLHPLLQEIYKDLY
The experiment in a line: PPAR/Gal4 chimera luciferase reporter transactivation assay in transiently transfected Cos-7 cells (hPPARγ). The assay is classed as cell-based. As to the method: as §3, §4
(In a reporter assay the amount or activity of a reporter protein is the signal.)

In assay [5] the test system is NF-κB (p65). The experiment in a line: Flow cytometry of TNFα-induced p65 (NF-κB) phosphorylation in HUVEC. Type of assay: cell-based, human. Conditions: TNFα 20 ng/mL 1 h. Here is the method: (§5) HUVEC were previously incubated for 24 h with compound 1 (10 µM), for use according to the present invention, or with compound 9 (3 µM), of the invention, and stimulated for 1 h with TNFα (20 ng/mL). The endothelial cells were fixed with BD Cytofix Fixation Buffer (BD Biosciences, San Jose, CA) and permeabilized with BD Sol Perm III solution (BD Biosciences, San Jose, CA) and sequentially stained with a 1:10 dilution of a PE-conjugated mAb antibody against human p65 (pS529, clone K10-895.12.50; BD Biosciences, San Jose, CA) and a 1:10 dilution of Alexa Fluor-conjugated mAb antibody against human p38 MAPK ([…], clone 36/p38; BD Biosciences, San Jose, CA). The cells were analyzed with a BD FACSVerse flow cytometer (BD Biosciences, San Jose, CA).
(A flow cytometer gives signals particle by particle.)

Assay [6] concerns CX3CL1. The experiment in a line: Flow cytometry of TNFα-induced CX3CL1 (fractalkine) expression in HUVEC. Type of assay: cell-based. Here is the method: as §1, §2
For assay [7], the system named is p38 MAPK. The experiment in a line: Flow cytometry of TNFα-induced p38 MAPK phosphorylation in HUVEC. Type of assay: cell-based, human. Conditions: TNFα 20 ng/mL 1 h. As to the method: as §5
Assay [8] has as its system VCAM-1. The experiment in a line: Flow cytometry of TNFα-induced VCAM-1 expression in HUVEC. Conditions: TNFα 20 ng/mL 24 h. Type of assay: cell-based, human. As to the method:
as §1, §2

Setting [9] is: ratio of IC50, mononuclear cell adhesion.

SMILES strings stand for the structures.

In general, EC50 refers to the concentration giving half of the maximal effect. As for `CCOC(=O)CCC(C)=CCCC1(C)CCc2cc(OCc3ccc(F)cc3)ccc2O1` (centres unmarked) [Compound 9], in assay [1] (setting [9]), the “potency times greater than polycerasoidol” value is on record as roughly 16 and the “potency times greater than rosiglitazone” value is reported as “approximately 3.6”. Moreover, in assay [2] (3 µM), the “expression of ICAM-1 induced by TNFα” value is given as “but not ICAM-1”. Also, in assay [3] (maximum activity as percentage of the maximum activity of WY-14643), the “hPPARα Efficacy (%)” value stood at 251%. Further, the EC50 in assay [3] (read-out: hPPARα EC50, Cos-7 cells, 24 h, tested 0.001 to 10 µM) was 300 nM. The “hPPARγ Efficacy (%)” value in assay [4] (maximum activity as percentage of the maximum activity of rosiglitazone) is 57%. The EC50 in assay [4] (read-out: hPPARγ EC50, Cos-7 cells, 24 h, tested 0.001 to 10 µM) stood at 400 nM. In assay [5] (3 µM), the “activation of NF-κB induced by TNFα” value is “inhibit significantly”. The “expression of CX3CL1 induced by TNFα” value in assay [6] (3 µM, TNFα 20 ng/mL 24 h) is “significant decrease”. For the same molecule, the “decrease of the activation of p38 MAPK” value in assay [7] (3 µM) was determined as 71.9%. Also, the “expression of VCAM-1 induced by TNFα” value in assay [8] (3 µM) is reported as “significant decrease”.

In general, IC50 refers to the midpoint of a concentration-inhibition curve. Consider `C/C(=C\CCC1(C)CCc2cc(O)cc(C)c2O1)CC/C=C(\C)C(=O)O` (centres unmarked) [Polycerasoidol, 1, polycerasoidol], for which the IC50 in assay [1] (Homo sapiens, HUVEC, pretreatment 20 h, TNFα 20 ng/mL 24 h, perfusion 5 min at 0.5 dyn/cm2, read-out: IC50 adhesion of HUVEC-mononuclear cells) was 4900 nM. For the same molecule, in assay [1] (setting [9]), the “times less potent than rosiglitazone” value was found to be 5. Besides, in assay [2] (10 µM, 20 h pretreatment), the “inhibition of ICAM-1 expression induced by TNFα” value worked out at 23.8%. In addition, the Emax is 107% in assay [3] (COS-7, read-out: hPPARα Efficacy (%)) and 95% in assay [4] (COS-7, read-out: hPPARγ Efficacy (%)). Also, in assay [5] (10 µM), the “activation of NF-κB induced by TNFα” value is reported as “inhibit significantly”. For the same molecule, the “reduced the expression of fractalkine (CX3CL1)” value in assay [6] (10 µM, TNFα 24 h) is on record as 77.6%. Further, the “decrease of the activation of p38 MAPK” value in assay [7] (10 µM) is 63.4%. The “inhibition of VCAM-1 expression induced by TNFα” value in assay [8] (10 µM, 20 h pretreatment) amounted to 87.8%.

Source of the values: EP3733658B1, “PRENYLATED BENZOPYRANES AS PPAR AGONISTS” (Universitat de València, priority 2017, dated 2019).
